pEC50: −log10 of the molar value. Like-named read-outs stand apart in the source and are kept apart here.
Key:
[1] = Efficacy testing in B254 mice; type: in vivo, mouse; details: both sexes, B254, mouse, brain, oral, 30 mg/kg BID, read-out: mean brain level of compound
Text: (§1) B254 mice are an AD model comprising expression of human APP with Swedish and Indiana mutations along with a D664A substitution and endogenous murine tau, as described in Galvan et al.. In our in vivo studies, we detected impairment in learning and memory in B254 D664A mice at 5–6 months of age (end of chronic treatment) in the novel location and novel object spatial memory testing paradigms. We note that previous studies have reported conflicting findings for such impairments when using in the Morris Water Maze. […] In a later study performed by a different group, it was reported that at both 2–3 or 5–7 months of age B254 and J20 mice had similar abnormalities relative to non-transgenic mice in spatial and nonspatial learning and memory. Our findings were in alignment with the latter studies.
(§2) Male and female 4-5 month-old B254 mice in the subchronic and chronic treatment were administered FAH65 via pipette feeding by the method of Atcha et al. at a dose of 30 mg/kg BID (60 mg/kg/day). Mice were weighed before the first dose for the calculation of volume to be administered. The formulation used comprised FAH65 hydrochloride as a 40 mg/mL solution in water plus 30 mg/mL in strawberry syrup.
(§3) In the pilot subchronic study, mice were treated for 10 days, and in the follow-up study, for 26 days. One week before the end of the study, mice in the pilot study underwent Novel Object Recognition (NOR) memory testing, and mice in the follow-up chronic study underwent both NOR and Novel Location Recognition (NLR) testing as described elsewhere. Briefly, mice are introduced to two identical, parallel and evenly objects in an opaque 30 × 40 cm arena (box without a lid) with navigation marks on the wall, for 10 min. For Novel Location Recognition (NLR), after a 2.5-h interval, the mouse is returned to the arena wherein one identical object has been moved diagonally. The time spent and number of discreet interactions with the objects in the original location and in the new location over 10 min is recorded. The mouse is then removed from the arena, and after an additional 2.5-h interval, for the Novel Object Recognition (NOR) phase, is returned to the arena wherein the objects are in the original position, but one is a new, different object. The time spent and number of discreet interactions with the objects in the original location and in the new location over 10 min is recorded. The novelty preference was calculated by […].
(§4) For in vivo studies, Individual tissues were weighed and sonicated on ice with AlphaLISA Lysis Buffer complemented with HALT (Fisher catalog # 78446) to give a 10 % W/V sonicate. Total protein concentration was assessed by BCA assay (Fisher catalog # 23227) following manufacturer recommendations.
(§5) For the ELISA assay to assess sAPPβ levels in brain an IBL ELISA (kit #27733) specific for sAPPβ with the Swedish (K595 N/M596L) mutation that is present in the APP transgene of the mouse model used following the kit instructions. Briefly, 499 μL of EIA buffer was added to individual tubes for each sample, 1 μL of sample added, vortexed and centrifuged. To each assay plate well, 100 μL of sample was added, and the covered plate incubated overnight at 4 °C. The plate(s) was washed 4 times with 350 μL/well wash buffer, then 100 μL/well of labeled antibody added followed by incubation for 30 min at 4 °C. After five washes, 100 μL chromogen solution was added to each well and incubated for 30 min at RT in the dark. Stop solution (100 μL/well) was then added and the plate read at 450 nm. […]

B254 mice = test: Efficacy testing in B254 mice; type: in vivo, mouse
Text: as §1, §2, §3, §4, §5

BACE1 cleavage of PSGL1 = molecular target: T1, BACE1 cleavage of PSGL1 (Homo sapiens, UniProt P56817); test: PSGL1 assay (SEAP-PSGL1); type: cell-based; details: SEAP-PSGL1, HEK293
T1 construct: with or without full-length wild-type BACE1; expressed in transfected cells; host or cells: HEK293
Procedure: A cDNA construct encoding a human placental secreted alkaline phosphatase (SEAP)-PSGL1 (pAPtag5-PSGL1-β1) fusion protein was transfected in human embryonic kidney (HEK293) cells in a 6-well format with or without full-length wild-type BACE1 using Lipofectamine 2000 (Invitrogen). After 6–8 ​h transfection, the medium was replaced with DMEM containing the test compound at 10, 5, 1, 0.1 and 0.01 ​μM and 10 ​% heat-inactivated fetal bovine serum (FBS), and incubated for 24 ​h. SEAP activity was measured in the conditioned medium.

[2] = chronic study, oral 30 mkd, 26 days

T1 sequence (P56817 46-501): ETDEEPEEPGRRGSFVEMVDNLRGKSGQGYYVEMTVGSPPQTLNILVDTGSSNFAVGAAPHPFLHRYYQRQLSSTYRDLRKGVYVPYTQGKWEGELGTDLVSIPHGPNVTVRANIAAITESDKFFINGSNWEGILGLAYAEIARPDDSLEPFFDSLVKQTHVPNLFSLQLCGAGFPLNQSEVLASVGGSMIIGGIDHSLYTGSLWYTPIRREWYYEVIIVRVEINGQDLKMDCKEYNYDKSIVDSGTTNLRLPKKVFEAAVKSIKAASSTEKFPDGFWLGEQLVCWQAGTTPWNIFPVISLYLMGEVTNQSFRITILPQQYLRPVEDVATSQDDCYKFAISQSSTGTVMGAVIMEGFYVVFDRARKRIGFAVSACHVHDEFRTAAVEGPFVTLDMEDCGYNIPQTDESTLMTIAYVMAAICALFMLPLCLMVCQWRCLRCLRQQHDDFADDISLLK

## Cc1cc(C2(c3cccc(-c4cncnc4)c3)N=C(N)N(C)C2=O)ccc1OC(F)F (centres unmarked) [FAH65]
[1]; chronic, 2 h after last day dosing
  concentration at 2 h: ~50 ng/g
[1]; subchronic, 2 h after the last dose
  concentration at 2 h: ~20 ng/g
B254 mice; [2]
  novelty preference in NOR vs. vehicle: significant increase
  novelty preference in Novel Location Recognition (NLR) vs. vehicle: significant increase
B254 mice; chronic, 26 days
  brain level of Aβ1-42 vs. vehicle: not significantly different
  brain level of sAPPβ vs. vehicle: not significantly different
  sAPPα in brain tissue vs. vehicle: significantly higher
  sAPPβ/sAPPα ratio in brain tissue vs. vehicle: significantly lower
B254 mice; pilot subchronic study, oral 30 mkd, 10 days
  Novel Object Recognition (NOR) performance vs. vehicle: not significantly increased
B254 mice; subchronic study
  GFAP, IP-10, Aβ1-38, Aβ1-40, Aβ1-42 and Aβ1-42/1-40 ratio in brain (MSD) vs. vehicle: no significant differences
B254 mice; subchronic, 10 days
  APP β-CTF in brain tissue vs. vehicle: significant decrease
  Aβ 1-42 in brain vs. vehicle: not significant
  p-tau/t-tau ratio in brain vs. vehicle: not significant
BACE1 cleavage of PSGL1
  pEC50: < 5.00

Source: paper PMC12491701, “Discovery of an APP-selective BACE1 inhibitor for Alzheimer's disease” (Neurotherapeutics, 2025)
